Measurements published in patent publication US9365614B2, “IAP BIR domain binding compounds” (priority 2006, dated 2016).
*1 amine or outer side, *2 acyl side, *3 side chain or, on linkers, in order; H or OH if unused. Where a SMILES comes first, the peptide text is derived from it. Bridges are numbered along the chain shown (N, C = ends). Roman numbers before positions name the chains, in order. [ ]: non-standard residue; d: D form. The star is where a group is joined. cisHyp = O=C(O)[C@@H]1C[C@H](O)CN1; pXylylene = c1cc(C[*:2])ccc1C[*:1]; NHPhenethyl = c1ccc(CCN*)cc1; Tle = CC(C)(C)[C@H](N)C(=O)O; NMeA = CN[C@@H](C)C(=O)O

test system: SKOV-3 cells; test: Survival MTT assay, SKOV-3; assay type: cell-based; conditions: Homo sapiens, SK-OV-3, 72 h, read-out: EC50 against SKOV3
Method: One day prior the treatment with compound, 2000 to 4000 cells per well were plated in a tissue culture treated 96 well format dish with 100 ul of media and incubated at 37° C., 5% CO2. On the day of compound treatment, compounds were diluted with cell culture media to a working stock concentration of 2×. 100 uL of diluted compound were then added to each well. The treated plate was incubated for 72 h at 37° C., 5% CO2. Upon incubation, the cell viability was assessed as followed 20 uL of MTT reagent at 5 mg/ml were added per well to cell plate. The plate was incubated for 2 h at 37° C. in presence of 5% CO2. The supernatant was then removed from the plate and 100 uL of isopropanol were added. The absorbance was measured in a TECAN spectrophotometer at 570 nm. The percentage of viability was expressed in percentage of the signal obtained with non treated cells.

Structure (SMILES) | EC50 [nM]
CN[C@@H](C)C(=O)N[C@H](C(=O)N1C[C@@H](OCc2ccc(CO[C@H]3C[C@@H](C(=O)NCCc4ccccc4)N(C(=O)[C@@H](NC(=O)[C@H](C)NC)C(C)(C)C)C3)cc2)C[C@H]1C(=O)NCCc1ccccc1)C(C)(C)C [Compound 29] (I: H-[NMeA]-[Tle]-[cisHyp]-NHPhenethyl / II: H-[NMeA]-[Tle]-[cisHyp]-NHPhenethyl; linker I:3-II:3 via pXylylene) | 88
CN[C@@H](C)C(=O)N[C@H](C(=O)N1C[C@@H](NC(=O)c2ccc(C(=O)N[C@H]3C[C@@H](CN(CCc4ccc(F)cc4)S(C)(=O)=O)N(C(=O)[C@@H](NC(=O)[C@H](C)NC)C(C)(C)C)C3)cc2)C[C@H]1CN(CCc1ccc(F)cc1)S(C)(=O)=O)C(C)(C)C [Compound 30] | 188

same assay, conditions: Homo sapiens, SK-OV-3, 72 h, read-out: SKOV-3 EC50

Structure (SMILES) | EC50 [nM]
CN[C@@H](C)C(=O)C[C@H](C(=O)N1C[C@@H](NC(=O)CCCCCCCC(=O)N[C@H]2C[C@@H](C(=O)N[C@@H]3CCCc4ccccc43)N(C(=O)[C@@H](NC(=O)[C@H](C)NC)C(C)(C)C)C2)C[C@H]1C(=O)N[C@@H]1CCCc2ccccc21)C(C)(C)C [Compound 12] | < 50
CN[C@@H](C)C(=O)N[C@H](C(=O)N1CC(NC(=O)CCCCCC(=O)N[C@H]2C[C@@H](C(=O)N[C@@H]3CCCc4ccccc43)N(C(=O)[C@@H](NC(=O)[C@H](C)NC)C(C)(C)C)C2)C[C@H]1C(=O)NC1CCCc2ccccc21)C(C)(C)C (stereo partly shown) [Compound 13] | < 50
CN[C@@H](C)C(=O)N[C@H](C(=O)N1C[C@@H](NC(=O)CCCC(=O)N[C@H]2C[C@@H](C(=O)N[C@@H]3CCCc4ccccc43)N(C(=O)[C@@H](NC(=O)[C@H](C)NC)C(C)(C)C)C2)C[C@H]1C(=O)NC1CCCc2ccccc21)C(C)(C)C (stereo partly shown) [Compound 14] | < 50
CN[C@@H](C)C(=O)N[C@H](C(=O)N1C[C@@H](NC(=O)Cc2ccc(CC(=O)N[C@H]3C[C@@H](C(=O)N[C@@H]4CCCc5ccccc54)N(C(=O)[C@@H](NC(=O)[C@H](C)NC)C(C)(C)C)C3)cc2)C[C@H]1C(=O)N[C@@H]1CCCc2ccccc21)C(C)(C)C [Compound 15] | < 50
CN[C@@H](C)C(=O)N[C@H](C(=O)N1C[C@@H](NC(=O)c2ccc(Oc3ccc(C(=O)N[C@H]4C[C@@H](C(=O)N[C@@H]5CCCc6ccccc65)N(C(=O)[C@@H](NC(=O)[C@H](C)NC)C(C)(C)C)C4)cc3)cc2)C[C@H]1C(=O)N[C@@H]1CCCc2ccccc21)C(C)(C)C [Compound 16] | < 50
CN[C@@H](C)C(=O)N[C@H](C(=O)N1C[C@@H](OCc2ccc(CO[C@H]3C[C@@H](C(=O)N[C@@H]4CCCc5ccccc54)N(C(=O)[C@@H](NC(=O)[C@H](C)NC)C(C)(C)C)C3)cc2)C[C@H]1C(=O)N[C@@H]1CCCc2ccccc21)C(C)(C)C [Compound 17] | < 50
CN[C@@H](C)C(=O)N[C@H](C(=O)N1C[C@@H](NC(=O)c2ccc(C(=O)N[C@H]3C[C@@H](C(=O)OC)N(C(=O)[C@@H](NC(=O)[C@H](C)NC)C(C)(C)C)C3)cc2)C[C@H]1C(=O)OC)C(C)(C)C [Compound 18] | > 1000
CN[C@@H](C)C(=O)N[C@H](C(=O)N1C[C@@H](NC(=O)c2ccc(C(=O)N[C@H]3C[C@@H](C(=O)NCCc4ccc(F)cc4)N(C(=O)[C@@H](NC(=O)[C@H](C)NC)C(C)(C)C)C3)cc2)C[C@H]1C(=O)NCCc1ccc(F)cc1)C(C)(C)C [Compound 19] | < 50
CN[C@@H](C)C(=O)N[C@H](C(=O)N1C[C@@H](NC(=O)c2ccc(C(=O)N[C@H]3C[C@@H](C(=O)NCCc4ccccc4)N(C(=O)[C@@H](NC(=O)[C@H](C)NC)C(C)(C)C)C3)cc2)C[C@H]1C(=O)NCCc1ccccc1)C(C)(C)C [Compound 20] | < 50
CN[C@@H](C)C(=O)N[C@H](C(=O)N1C[C@@H](NC(=O)c2ccc(C(=O)N[C@H]3C[C@@H](C(=O)NC[C@H](C)c4ccccc4)N(C(=O)[C@@H](NC(=O)[C@H](C)NC)C(C)(C)C)C3)cc2)C[C@H]1C(=O)NC[C@@H](C)c1ccccc1)C(C)(C)C [Compound 21] | < 50
CN[C@@H](C)C(=O)N[C@H](C(=O)N1C[C@@H](NC(=O)c2ccc(C(=O)N[C@H]3C[C@@H](C(=O)NC(C)C)N(C(=O)[C@@H](NC(=O)[C@H](C)NC)C(C)(C)C)C3)cc2)C[C@H]1C(=O)NC(C)C)C(C)(C)C [Compound 22] | < 250
CN[C@@H](C)C(=O)N[C@H](C(=O)N1C[C@@H](NC(=O)c2ccc(C(=O)N[C@H]3C[C@@H](C(=O)N[C@@H]4CCCc5ccccc54)N(C(=O)[C@@H](NC(=O)[C@H](C)NC)C(C)(C)C)C3)cc2)C[C@H]1C(=O)N[C@H]1CCCc2ccccc21)C(C)(C)C [Compound 23] | < 50
CN[C@@H](C)C(=O)N[C@H](C(=O)N1C[C@@H](NC(=O)c2ccc(C(=O)N[C@H]3C[C@@H](C(=O)NC(c4ccccc4)c4ccccc4)N(C(=O)[C@@H](NC(=O)[C@H](C)NC)C(C)(C)C)C3)cc2)C[C@H]1C(=O)NC(c1ccccc1)c1ccccc1)C(C)(C)C [Compound 24] | < 50
CN[C@@H](C)C(=O)N[C@H](C(=O)N1C[C@@H](NC(=O)c2ccc(C(=O)N[C@H]3C[C@@H](CN(CCc4ccccc4)C(C)=O)N(C(=O)[C@@H](NC(=O)[C@H](C)NC)C(C)(C)C)C3)cc2)C[C@H]1CN(CCc1ccccc1)C(C)=O)C(C)(C)C [Compound 25] | < 50
CN[C@@H](C)C(=O)N[C@H](C(=O)N1C[C@@H](NC(=O)c2ccc(C(=O)N[C@H]3C[C@@H](CN(CCc4ccccc4)S(C)(=O)=O)N(C(=O)[C@@H](NC(=O)[C@H](C)NC)C(C)(C)C)C3)cc2)C[C@H]1CN(CCc1ccccc1)S(C)(=O)=O)C(C)(C)C [Compound 26] | < 250
CN[C@@H](C)C(=O)N[C@H](C(=O)N1C[C@@H](NC(=O)c2ccc(C(=O)N[C@H]3C[C@@H](CN(CCc4ccccc4)C(=O)c4ccccc4)N(C(=O)[C@@H](NC(=O)[C@H](C)NC)C(C)(C)C)C3)cc2)C[C@H]1CN(CCc1ccccc1)C(=O)c1ccccc1)C(C)(C)C [Compound 27] | < 250
CN[C@@H](C)C(=O)N[C@H](C(=O)N1C[C@@H](NC(=O)c2ccc(C(=O)N[C@H]3C[C@@H](CN(CCc4ccc(F)cc4)C(C)=O)N(C(=O)[C@@H](NC(=O)[C@H](C)NC)C(C)(C)C)C3)cc2)C[C@H]1CN(CCc1ccc(F)cc1)C(C)=O)C(C)(C)C [Compound 28] | < 50
CN[C@@H](C)C(=O)N[C@H](C(=O)N1C[C@@H](OCc2ccc(CO[C@H]3C[C@@H](C(=O)NCCc4ccccc4)N(C(=O)[C@@H](NC(=O)[C@H](C)NC)C(C)(C)C)C3)cc2)C[C@H]1C(=O)NCCc1ccccc1)C(C)(C)C [Compound 29] (I: H-[NMeA]-[Tle]-[cisHyp]-NHPhenethyl / II: H-[NMeA]-[Tle]-[cisHyp]-NHPhenethyl; linker I:3-II:3 via pXylylene) | < 250
CN[C@@H](C)C(=O)N[C@H](C(=O)N1C[C@@H](NC(=O)c2ccc(C(=O)N[C@H]3C[C@@H](CN(CCc4ccc(F)cc4)S(C)(=O)=O)N(C(=O)[C@@H](NC(=O)[C@H](C)NC)C(C)(C)C)C3)cc2)C[C@H]1CN(CCc1ccc(F)cc1)S(C)(=O)=O)C(C)(C)C [Compound 30] | > 1000
CN[C@@H](C)C(=O)N[C@H](C(=O)N1C[C@@H](NC(=O)c2ccc(C(=O)N[C@H]3C[C@@H](C(=O)NCC(c4ccccc4)c4ccccc4)N(C(=O)[C@@H](NC(=O)[C@H](C)NC)C(C)(C)C)C3)cc2)C[C@H]1C(=O)NCC(c1ccccc1)c1ccccc1)C(C)(C)C [Compound 31] | < 250
CN[C@@H](C)C(=O)N[C@H](C(=O)N1C[C@@H](NC(=O)c2ccc(C(=O)N[C@H]3C[C@@H](C(=O)NCc4cccc5ccccc45)N(C(=O)[C@@H](NC(=O)[C@H](C)NC)C(C)(C)C)C3)cc2)C[C@H]1C(=O)NCc1cccc2ccccc12)C(C)(C)C [Compound 32] | < 250
CN[C@@H](C)C(=O)N[C@H](C(=O)N1C[C@@H](NS(=O)(=O)c2cccc(S(=O)(=O)N[C@H]3C[C@@H](C(=O)N[C@@H]4CCCc5ccccc54)N(C(=O)[C@@H](NC(=O)[C@H](C)NC)C(C)(C)C)C3)c2)C[C@H]1C(=O)N[C@@H]1CCCc2ccccc21)C(C)(C)C [Compound 33] | < 50
CN[C@@H](C)C(=O)N[C@H](C(=O)N1C[C@@H](NC(=O)c2ccc(C(=O)N[C@H]3C[C@@H](C(=O)N[C@@H]4CCCc5ccccc54)N(C(=O)[C@@H](NC(=O)[C@H](C)NC)C(C)(C)C)C3)cc2)C[C@H]1C(=O)NC1CCCc2ccccc21)C(C)(C)C (stereo partly shown) [Compound 34] | < 250
CN[C@@H](C)C(=O)N[C@H](C(=O)N1C[C@@H](NC(=O)CNC(=O)c2ccc(C(=O)NCC(=O)N[C@H]3C[C@@H](C(=O)N[C@@H]4CCCc5ccccc54)N(C(=O)[C@@H](NC(=O)[C@H](C)NC)C(C)(C)C)C3)cc2)C[C@H]1C(=O)N[C@@H]1CCCc2ccccc21)C(C)(C)C [Compound 35] | < 250
CN[C@@H](C)C(=O)N[C@H](C(=O)N1C[C@@H](NC(=O)CNC(=O)C(=O)NCC(=O)N[C@H]2C[C@@H](C(=O)N[C@@H]3CCCc4ccccc43)N(C(=O)[C@@H](NC(=O)[C@H](C)NC)C(C)(C)C)C2)C[C@H]1C(=O)N[C@@H]1CCCc2ccccc21)C(C)(C)C [Compound 36] | > 1000
CN[C@@H](C)C(=O)NC(C(=O)N1C[C@@H](NC(=O)CNC(=O)c2cccc(C(=O)NCC(=O)N[C@H]3C[C@@H](C(=O)N[C@@H]4CCCc5ccccc54)N(C(=O)[C@@H](NC(=O)[C@H](C)NC)C(C)(C)C)C3)c2)CC1C(=O)N[C@@H]1CCCc2ccccc21)C(C)(C)C (stereo partly shown) [Compound 37] | > 1000
CN[C@@H](C)C(=O)N[C@H](C(=O)N1C[C@@H](NC(=O)CNC(=O)c2ccc(-c3ccc(C(=O)NCC(=O)N[C@H]4C[C@@H](C(=O)N[C@@H]5CCCc6ccccc65)N(C(=O)[C@@H](NC(=O)[C@H](C)NC)C(C)(C)C)C4)cc3)cc2)C[C@H]1C(=O)N[C@@H]1CCCc2ccccc21)C(C)(C)C [Compound 38] | < 250
CN[C@@H](C)C(=O)N[C@H](C(=O)N1C[C@@H](NS(=O)(=O)c2ccc(-c3ccc(S(=O)(=O)N[C@H]4C[C@@H](C(=O)N[C@@H]5CCCc6ccccc65)N(C(=O)[C@@H](NC(=O)[C@H](C)NC)C(C)(C)C)C4)cc3)cc2)C[C@H]1C(=O)NC1CCCc2ccccc21)C(C)(C)C (stereo partly shown) [Compound 39] | < 50
CN[C@@H](C)C(=O)N[C@H](C(=O)N1C[C@@H](NC(=O)c2cccc(C(=O)N[C@H]3C[C@@H](C(=O)N[C@@H]4CCCc5ccccc54)N(C(=O)[C@@H](NC(=O)[C@H](C)NC)C(C)(C)C)C3)c2)C[C@H]1C(=O)N[C@@H]1CCCc2ccccc21)C(C)(C)C [Compound 40] | < 50
